Where two headings read alike, the source gives them in different places.
Columns and labels:
L-1210 leukemia = assay type: in vivo, mouse (BDF1 female)
Protocol: The compound of the present invention was also tested against the transplantable mouse tumor L-1210 lymphatic leukemia which is responsive to anthracycline-type antitumor agents.
Tumor inoculum: 10^6 ascites cells implanted i.p.
Host: BDF1 .female. mice
Evaluation: MST = median survival time
Effect: % T/C = MST treated/MST control × 100
Criteria: T/C ≥ 125 considered significant antitumor effect.

[1] = test system: Candida tropicalis A-15051; experiment: MIC, standard tube dilution procedure; assay type: cell-based
Protocol: (§1) The in vitro minimum inhibitory concentrations (MIC) of rudolphomycin were determined for a number of microorganisms using the standard tube dilution procedure.

Proteus mirabilis A-9900 = experiment: MIC, standard tube dilution procedure; assay type: cell-based
Protocol: as §1

[2] = test system: Streptococcus faecalis A-20688; experiment: MIC, standard tube dilution procedure; assay type: cell-based
Protocol: as §1

Escherichia coli A-15119 = experiment: MIC, standard tube dilution procedure; assay type: cell-based
Protocol: as §1

[3] = test system: Cryptococcus neoformans A-15053; experiment: MIC, standard tube dilution procedure; assay type: cell-based
Protocol: as §1

Proteus vulgaris A-9716 = experiment: MIC, standard tube dilution procedure; assay type: cell-based
Protocol: as §1

[4] = test system: Streptococcus pyogenes A-9604; experiment: MIC, standard tube dilution procedure; assay type: cell-based
Protocol: as §1

[5] = test system: Escherichia coli A-20341-1; experiment: MIC, standard tube dilution procedure; assay type: cell-based
Protocol: as §1

[6] = test system: Staphylococcus aureus A-9606; experiment: MIC, standard tube dilution procedure; assay type: cell-based
Protocol: as §1

[7] = test system: Klebsiella pneumoniae A-15130; experiment: MIC, standard tube dilution procedure; assay type: cell-based
Protocol: as §1

[8] = test system: Serratia marcescens A-20019; experiment: MIC, standard tube dilution procedure; assay type: cell-based
Protocol: as §1

[9] = test system: Trichophyton mentagrophytes A-9870; experiment: MIC, standard tube dilution procedure; assay type: cell-based
Protocol: as §1

[10] = test system: Pseudomonas aeruginosa A-9843A; experiment: MIC, standard tube dilution procedure; assay type: cell-based
Protocol: as §1

[11] = test system: Streptococcus pneumoniae A-9585; experiment: MIC, standard tube dilution procedure; assay type: cell-based
Protocol: as §1

[12] = test system: Enterobacter cloacae A-9659; experiment: MIC, standard tube dilution procedure; assay type: cell-based
Protocol: as §1

[13] = test system: Staphylococcus aureus A-9537; experiment: MIC, standard tube dilution procedure; assay type: cell-based
Protocol: as §1

Candida krusei A-15052 = experiment: MIC, standard tube dilution procedure; assay type: cell-based
Protocol: as §1

Candida albicans A-9540 = experiment: MIC, standard tube dilution procedure; assay type: cell-based
Protocol: as §1

Microsporum canis A-9872 = experiment: MIC, standard tube dilution procedure; assay type: cell-based
Protocol: as §1

P388 mouse leukemia = experiment: Activity of chromatographic bands on P388 mouse leukemia system; assay type: in vivo; details: Example 4 bands
[14] = Biological activity of chromatographic fractions of bohemic acid complex (test not specified); details: Example 5, large scale LH-20
L1210 mouse leukemia = experiment: Activity of chromatographic bands on L1210 mouse leukemia system; assay type: in vivo; details: Example 4 bands
[15] = day 1 (1 inj.), 0.4 mg./kg./inj.
[16] = day 1 (1 inj.), 0.8 mg./kg./inj.
[17] = day 1 (1 inj.), 1.6 mg./kg./inj.
[18] = day 1 (1 inj.), 3.2 mg./kg./inj.
[19] = day 1 (1 inj.), 6.4 mg./kg./inj.
[20] = day 1 (1 inj.), 12.8 mg./kg./inj.
[21] = days 1, 4, 7 (3 inj.), 0.2 mg./kg./inj.
[22] = days 1, 4, 7 (3 inj.), 0.4 mg./kg./inj.
[23] = days 1, 4, 7 (3 inj.), 0.8 mg./kg./inj.
[24] = days 1, 4, 7 (3 inj.), 1.6 mg./kg./inj.
[25] = days 1, 4, 7 (3 inj.), 3.2 mg./kg./inj.
[26] = days 1, 4, 7 (3 inj.), 6.4 mg./kg./inj.
[27] = days 1→5 (5 inj.), 0.1 mg./kg./inj.
[28] = days 1→5 (5 inj.), 0.2 mg./kg./inj.
[29] = days 1→5 (5 inj.), 0.4 mg./kg./inj.
[30] = days 1→5 (5 inj.), 0.8 mg./kg./inj.
[31] = days 1→5 (5 inj.), 1.6 mg./kg./inj.
[32] = days 1→5 (5 inj.), 3.2 mg./kg./inj.
[33] = days 1→9 (9 inj.), 0.05 mg./kg./inj.
[34] = days 1→9 (9 inj.), 0.1 mg./kg./inj.
[35] = days 1→9 (9 inj.), 0.2 mg./kg./inj.
[36] = days 1→9 (9 inj.), 0.4 mg./kg./inj.
[37] = days 1→9 (9 inj.), 0.8 mg./kg./inj.
[38] = days 1→9 (9 inj.), 1.6 mg./kg./inj.

CC[C@@]1(O)C[C@H](O[C@H]2C[C@H](N(C)C)[C@H](O[C@H]3C[C@H](O)[C@H](O[C@@H]4O[C@@H](C)C(=O)C=C4N)[C@@H](C)O3)[C@@H](C)O2)c2c(cc3c(c2O)C(=O)c2c(O)ccc(O)c2C3=O)[C@H]1C(=O)OC [Rudolphomycin]
> 63 µg/mL: MIC (Proteus mirabilis A-9900) | MIC (Escherichia coli A-15119) | MIC (Proteus vulgaris A-9716) | MIC [5] | MIC [7] | MIC [8] | MIC [10] | MIC [12]
9.5 days: MST (median survival time) (L-1210 leukemia; [23])
0.5 µg/mL: MIC [4]
0.25 µg/mL: MIC [11]
> 125 µg/mL: MIC [1] | MIC [9] | MIC (Candida krusei A-15052) | MIC (Candida albicans A-9540) | MIC (Microsporum canis A-9872)
10.0 days: MST (median survival time) (L-1210 leukemia; [18]) | MST (median survival time) (L-1210 leukemia; [19]) | MST (median survival time) (L-1210 leukemia; [20]) | MST (median survival time) (L-1210 leukemia; [24]) | MST (median survival time) (L-1210 leukemia; [30])
9.0 days: MST (median survival time) (L-1210 leukemia; [26]) | MST (median survival time) (L-1210 leukemia; [28]) | MST (median survival time) (L-1210 leukemia; [29]) | MST (median survival time) (L-1210 leukemia; [31]) | MST (median survival time) (L-1210 leukemia; [32]) | MST (median survival time) (L-1210 leukemia; [35]) | MST (median survival time) (L-1210 leukemia; [36]) | MST (median survival time) (L-1210 leukemia; [37])
4 µg/mL: MIC [2]
107%: MST % T/C (L-1210 leukemia; [34]) | MST % T/C (L-1210 leukemia; [38])
143%: MST % T/C (L-1210 leukemia; [18]) | MST % T/C (L-1210 leukemia; [19]) | MST % T/C (L-1210 leukemia; [20]) | MST % T/C (L-1210 leukemia; [24]) | MST % T/C (L-1210 leukemia; [30])
136%: MST % T/C (L-1210 leukemia; [23])
63 µg/mL: MIC [3]
114%: MST % T/C (L-1210 leukemia; [15]) | MST % T/C (L-1210 leukemia; [16]) | MST % T/C (L-1210 leukemia; [17]) | MST % T/C (L-1210 leukemia; [21]) | MST % T/C (L-1210 leukemia; [22]) | MST % T/C (L-1210 leukemia; [27]) | MST % T/C (L-1210 leukemia; [33])
129%: MST % T/C (L-1210 leukemia; [26]) | MST % T/C (L-1210 leukemia; [28]) | MST % T/C (L-1210 leukemia; [29]) | MST % T/C (L-1210 leukemia; [31]) | MST % T/C (L-1210 leukemia; [32]) | MST % T/C (L-1210 leukemia; [35]) | MST % T/C (L-1210 leukemia; [36]) | MST % T/C (L-1210 leukemia; [37])
8 µg/mL: MIC [6]
100%: MST % T/C (L-1210 leukemia; [25])
2 µg/mL: MIC [13]
8.0 days: MST (median survival time) (L-1210 leukemia; [15]) | MST (median survival time) (L-1210 leukemia; [16]) | MST (median survival time) (L-1210 leukemia; [17]) | MST (median survival time) (L-1210 leukemia; [21]) | MST (median survival time) (L-1210 leukemia; [22]) | MST (median survival time) (L-1210 leukemia; [27]) | MST (median survival time) (L-1210 leukemia; [33])
7.5 days: MST (median survival time) (L-1210 leukemia; [34]) | MST (median survival time) (L-1210 leukemia; [38])
7.0 days: MST (median survival time) (L-1210 leukemia; [25])

CC[C@@]1(O)C[C@H](O[C@H]2C[C@H](N(C)C)[C@H](O[C@H]3C[C@H](O)[C@H](O)[C@H](C)O3)[C@H](C)O2)c2c(cc3c(c2O)C(=O)c2c(O)ccc(O)c2C3=O)[C@H]1C(=O)OC [musettamycin]
active: activity of chromatographic fraction [14]
highly active: activity on P388 mouse leukemia (P388 mouse leukemia) | activity on L1210 mouse leukemia (L1210 mouse leukemia)

Reference: US4162938A, “Antibiotic compound” (Bristol-Myers Company, priority 1978, dated 1979)
